Laboratory results published in patent publication US20180110754A1, “CENICRIVIROC FOR THE TREATMENT OF FIBROSIS” (Tobira Therapeutics, Inc., priority 2015, published 2018).
Like-named read-outs stand apart in the source and are kept apart here.

Assays:
[1] = test system: APRI and FIB-4 scores; assay: Study 202 post-hoc APRI and FIB-4 fibrosis index scores; assay type: in vivo, human
Experimental: APRI and FIB-4 scores were calculated. Change in score category from baseline (BL) to Weeks 24 and 48 was assessed in patients with non-missing data. Correlations between changes from BL in APRI and FIB-4 scores, and MCP-1 (CCR2 ligand) and sCD14 (inflammatory biomarker) levels were evaluated.

[2] = for SAE: Suicidal ideation, n subjects: through Week 48
Text: Subjects with a history of HIV-2, hepatitis B and/or C, cirrhosis of the liver or any known active or chronic active liver disease were excluded from the study.
Most AEs were mild or moderate (Grade 1 or Grade 2). […] None of the Grade ≥3 AEs (preferred terms) were reported in more than 1 subject.

CCCCOCCOc1ccc(-c2ccc3c(c2)/C=C(/C(=O)Nc2ccc([S@@+]([O-])Cc4cncn4CCC)cc2)CCCN3CC(C)C)cc1 [CVC, (S)-8-[4-(2-Butoxyethoxy)phenyl]-1-isobutyl-N-(4-{[(1-propyl-1H-imidazol-5-yl)methyl]sulfinyl}phenyl)-1,2,3,4-tetrahydro-1-benzazocine-5-carboxamide]
Patients in APRI category 0.5-1.5 ([1]; Baseline): 14%
Patients in APRI category >1.5 ([1]; Baseline): 2%
Patients in FIB-4 category 1.45-3.25 ([1]; Baseline): 17%
Patients in FIB-4 category <1.45 ([1]; Baseline): 82%
Patients in FIB-4 category >3.25 ([1]; Baseline): 1%
Patients in APRI category <0.5 ([1]; Baseline, CVC pooled 100/200 mg or EFV): 84%
Patients in APRI category 0.5-1.5 ([1]; Week 24): 7%
Patients in APRI category <0.5 ([1]; Week 24): 93%
Patients in FIB-4 category 1.45-3.25 ([1]; Week 24): 7%
Patients in FIB-4 category <1.45 ([1]; Week 24): 93%
Patients with APRI decreased 1 category from baseline ([1]; Week 24): 14%
Patients with FIB-4 decreased 1 category from baseline ([1]; Week 24): 13%
Patients in APRI category 0.5-1.5 ([1]; Week 48): 8%
Patients in APRI category <0.5 ([1]; Week 48): 91%
Patients in APRI category >1.5 ([1]; Week 48): 1%
Patients in FIB-4 category 1.45-3.25 ([1]; Week 48): 5%
Patients in FIB-4 category <1.45 ([1]; Week 48): 94%
Patients in FIB-4 category >3.25 ([1]; Week 48): 1%
Patients with APRI decreased 1 category from baseline ([1]; Week 48): 10%
Patients with FIB-4 decreased 1 category from baseline ([1]; Week 48): 14%
Subjects with improvements in APRI and FIB-4 scores over time ([1]; all CVC-treated subjects (pooled 100 mg and 200 mg)): ≥ 10%
Deaths ([2]; All CVC (N = 115)): 0 n
SAE: Suicidal ideation, n subjects ([2]; All CVC (N = 115), EFV (N = 28)): 0
Grade 3 or 4 AE: Suicidal ideation, n subjects ([2]; All CVC (N = 115), EFV (N = 28; Grade 4 event)): 0
Any AE, n subjects ([2]; CVC 100 mg (N = 58)): 51
Any Grade 3 AE, n subjects ([2]; CVC 100 mg (N = 58)): 2
Any Grade 4 AE, n subjects ([2]; CVC 100 mg (N = 58)): 0
Deaths ([2]; CVC 100 mg (N = 58)): 0 n
Grade 3 or 4 AE: Abdominal pain, n subjects ([2]; CVC 100 mg (N = 58)): 1
Grade 3 or 4 AE: Blindness unilateral, n subjects ([2]; CVC 100 mg (N = 58)): 0
Grade 3 or 4 AE: Blood creatine phosphokinase increased, n subjects ([2]; CVC 100 mg (N = 58)): 0
Grade 3 or 4 AE: Cardiac disorders, n subjects ([2]; CVC 100 mg (N = 58)): 1
Grade 3 or 4 AE: Corneal infection, n subjects ([2]; CVC 100 mg (N = 58)): 0
Grade 3 or 4 AE: Suicidal ideation, n subjects ([2]; CVC 100 mg (N = 58)): 0
SAE: Suicidal ideation, n subjects ([2]; CVC 100 mg (N = 58)): 0
Any AE, n subjects ([2]; CVC 200 mg (N = 57)): 48
Any Grade 3 AE, n subjects ([2]; CVC 200 mg (N = 57)): 3
Any Grade 4 AE, n subjects ([2]; CVC 200 mg (N = 57)): 0
Deaths ([2]; CVC 200 mg (N = 57)): 0 n
Grade 3 or 4 AE: Abdominal pain, n subjects ([2]; CVC 200 mg (N = 57)): 0
Grade 3 or 4 AE: Blindness unilateral, n subjects ([2]; CVC 200 mg (N = 57)): 1
Grade 3 or 4 AE: Blood creatine phosphokinase increased, n subjects ([2]; CVC 200 mg (N = 57)): 1
Grade 3 or 4 AE: Cardiac disorders, n subjects ([2]; CVC 200 mg (N = 57)): 0
Grade 3 or 4 AE: Corneal infection, n subjects ([2]; CVC 200 mg (N = 57)): 1
Grade 3 or 4 AE: Suicidal ideation, n subjects ([2]; CVC 200 mg (N = 57)): 0
SAE: Suicidal ideation, n subjects ([2]; CVC 200 mg (N = 57)): 0
Grade 3 or 4 AE: Blood creatine phosphokinase increased, n subjects ([2]; human, in vivo, 48 week): 1
Grade 3 or 4 AE: Cardiac disorders, n subjects ([2]; human, in vivo, 48 week): 1
Grade 3 or 4 AE: Depression, n subjects ([2]; human, in vivo, 48 week): 0
Grade 3 or 4 AE: Ear and labyrinth disorders, n subjects ([2]; human, in vivo, 48 week): 0
Grade 3 or 4 AE: Investigations, n subjects ([2]; human, in vivo, 48 week): 1
Grade 3 or 4 AE: Palpitations, n subjects ([2]; human, in vivo, 48 week): 1
Grade 3 or 4 AE: Psychiatric disorders, n subjects ([2]; human, in vivo, 48 week): 1
Grade 3 or 4 AE: Stress, n subjects ([2]; human, in vivo, 48 week): 1
Grade 3 or 4 AE: Weight decreased, n subjects ([2]; human, in vivo, 48 week): 0
AE Abnormal dreams, n subjects ([2]; human, in vivo, 48 weeks): 9
AE Depression, n subjects ([2]; human, in vivo, 48 weeks): 3
AE Diarrhoea, n subjects ([2]; human, in vivo, 48 weeks): 17
AE Dizziness, n subjects ([2]; human, in vivo, 48 weeks): 11
AE Fatigue, n subjects ([2]; human, in vivo, 48 weeks): 14
AE Headache, n subjects ([2]; human, in vivo, 48 weeks): 16
AE Insomnia, n subjects ([2]; human, in vivo, 48 weeks): 7
AE Lymphadenopathy, n subjects ([2]; human, in vivo, 48 weeks): 7
AE Nasopharyngitis, n subjects ([2]; human, in vivo, 48 weeks): 10
AE Nausea, n subjects ([2]; human, in vivo, 48 weeks): 18
AE Rash, n subjects ([2]; human, in vivo, 48 weeks): 14
AE Syphilis, n subjects ([2]; human, in vivo, 48 weeks): 1
AE Upper respiratory tract infection, n subjects ([2]; human, in vivo, 48 weeks): 18
AE leading to discontinuation: Abnormal dreams, n subjects ([2]; human, in vivo, 48 weeks): 0
AE leading to discontinuation: Aggression, n subjects ([2]; human, in vivo, 48 weeks): 1
AE leading to discontinuation: Anxiety, n subjects ([2]; human, in vivo, 48 weeks): 0
AE leading to discontinuation: Depression, n subjects ([2]; human, in vivo, 48 weeks): 1
AE leading to discontinuation: Dermatitis allergic, n subjects ([2]; human, in vivo, 48 weeks): 0
AE leading to discontinuation: Disturbance in attention, n subjects ([2]; human, in vivo, 48 weeks): 0
AE leading to discontinuation: Dizziness, n subjects ([2]; human, in vivo, 48 weeks): 0
AE leading to discontinuation: Ear and labyrinth disorders, n subjects ([2]; human, in vivo, 48 weeks): 0
AE leading to discontinuation: Eye disorders, n subjects ([2]; human, in vivo, 48 weeks): 0
AE leading to discontinuation: Gastrointestinal disorders, n subjects ([2]; human, in vivo, 48 weeks): 0
AE leading to discontinuation: General disorders and administration site conditions, n subjects ([2]; human, in vivo, 48 weeks): 1
AE leading to discontinuation: Hypoaesthesia, n subjects ([2]; human, in vivo, 48 weeks): 0
AE leading to discontinuation: Insomnia, n subjects ([2]; human, in vivo, 48 weeks): 0
AE leading to discontinuation: Malaise, n subjects ([2]; human, in vivo, 48 weeks): 1
AE leading to discontinuation: Musculoskeletal and connective tissue disorders, n subjects ([2]; human, in vivo, 48 weeks): 0
AE leading to discontinuation: Musculoskeletal discomfort, n subjects ([2]; human, in vivo, 48 weeks): 0
AE leading to discontinuation: Nausea, n subjects ([2]; human, in vivo, 48 weeks): 0
AE leading to discontinuation: Nervous system disorders, n subjects ([2]; human, in vivo, 48 weeks): 0
AE leading to discontinuation: Photophobia, n subjects ([2]; human, in vivo, 48 weeks): 0
AE leading to discontinuation: Psychiatric disorders, n subjects ([2]; human, in vivo, 48 weeks): 1
AE leading to discontinuation: Rash, n subjects ([2]; human, in vivo, 48 weeks): 0
AE leading to discontinuation: Skin and subcutaneous tissue disorders, n subjects ([2]; human, in vivo, 48 weeks): 0
AE leading to discontinuation: Tachyphrenia, n subjects ([2]; human, in vivo, 48 weeks): 0
AE leading to discontinuation: Thinking abnormal, n subjects ([2]; human, in vivo, 48 weeks): 1
AE leading to discontinuation: Tinnitus, n subjects ([2]; human, in vivo, 48 weeks): 0
Any AE leading to discontinuation of study drug, n subjects ([2]; human, in vivo, 48 weeks): 1
Any AE, n subjects ([2]; human, in vivo, 48 weeks): 99
Any Grade 3 AE, n subjects ([2]; human, in vivo, 48 weeks): 5
Any Grade 4 AE, n subjects ([2]; human, in vivo, 48 weeks): 0
Any SAE, n subjects ([2]; human, in vivo, 48 weeks): 2
Grade 3 or 4 AE: Abdominal pain, n subjects ([2]; human, in vivo, 48 weeks): 1
Grade 3 or 4 AE: Blindness unilateral, n subjects ([2]; human, in vivo, 48 weeks): 1
Grade 3 or 4 AE: Corneal infection, n subjects ([2]; human, in vivo, 48 weeks): 1
Grade 3 or 4 AE: Dermatitis allergic, n subjects ([2]; human, in vivo, 48 weeks): 0
Grade 3 or 4 AE: Eye disorders, n subjects ([2]; human, in vivo, 48 weeks): 1
Grade 3 or 4 AE: Gastrointestinal disorders, n subjects ([2]; human, in vivo, 48 weeks): 1
Grade 3 or 4 AE: General disorders and administration site conditions, n subjects ([2]; human, in vivo, 48 weeks): 1
Grade 3 or 4 AE: Infections and infestations, n subjects ([2]; human, in vivo, 48 weeks): 1
Grade 3 or 4 AE: Pyrexia, n subjects ([2]; human, in vivo, 48 weeks): 1
Grade 3 or 4 AE: Skin and subcutaneous tissue disorders, n subjects ([2]; human, in vivo, 48 weeks): 0
Grade 3 or 4 AE: Tinnitus, n subjects ([2]; human, in vivo, 48 weeks): 0
SAE: Blindness unilateral, n subjects ([2]; human, in vivo, 48 weeks): 1
SAE: Corneal infection, n subjects ([2]; human, in vivo, 48 weeks): 1
SAE: Depression, n subjects ([2]; human, in vivo, 48 weeks): 0
SAE: Eye disorders, n subjects ([2]; human, in vivo, 48 weeks): 1
SAE: Gastroenteritis, n subjects ([2]; human, in vivo, 48 weeks): 1
SAE: Infections and infestations, n subjects ([2]; human, in vivo, 48 weeks): 2
SAE: Psychiatric disorders, n subjects ([2]; human, in vivo, 48 weeks): 0
Subjects who experienced a Grade ≥3 AE ([2]; human, in vivo, 48 weeks): 4%
Subjects with AEs, worst grade severity Grade 4 ([2]; human, in vivo, 48 weeks): 0 n
